Data as given in PubChem BioAssay (NCI).
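Exposure lasted 48 hours, with cells grown in 96-well plates and compounds tested at five concentrations. Abbreviation: GI50, concentration required for 50% inhibition of growth. At the TGI there is no net growth.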

How the values were obtained:
Test in all cases: NCI anticancer screen, dose series, 48 h
SK-MEL-28 melanoma = tested on: SK-MEL-28 melanoma
MCF7 breast = tested on: MCF7 breast
MDA-MB-231 breast = tested on: MDA-MB-231 breast
CAKI-1 renal = tested on: CAKI-1 renal
RXF 393 renal = tested on: RXF 393 renal
COLO 205 colon = tested on: COLO 205 colon
A549 NSCLC = tested on: A549 NSCLC
BT-549 breast = tested on: BT-549 breast
SK-MEL-2 melanoma = tested on: SK-MEL-2 melanoma
NCI-H522 lung = tested on: NCI-H522 lung
786-0 renal = tested on: 786-0 renal
HCC-2998 colon = tested on: HCC-2998 colon
SNB-19 CNS = tested on: SNB-19 CNS
PC-3 prostate = tested on: PC-3 prostate
MDA-MB-435 = tested on: MDA-MB-435
HCT-116 colon = tested on: HCT-116 colon
HT29 colon = tested on: HT29 colon
UO-31 renal = tested on: UO-31 renal
SK-MEL-5 melanoma = tested on: SK-MEL-5 melanoma
LOX IMVI melanoma = tested on: LOX IMVI melanoma
M14 melanoma = tested on: M14 melanoma
MALME-3M melanoma = tested on: MALME-3M melanoma
HOP-92 NSCLC = tested on: HOP-92 NSCLC
ACHN renal = tested on: ACHN renal
K-562 leukemia = tested on: K-562 leukemia
RPMI-8226 leukemia = tested on: RPMI-8226 leukemia
EKVX NSCLC = tested on: EKVX NSCLC
OVCAR-5 ovarian = tested on: OVCAR-5 ovarian
SR leukemia = tested on: SR leukemia

## O=C(NO)c1ccc(-c2nc3ccc4[nH]ncc4c3c3c2CCCC3)cc1
SK-MEL-28 melanoma
  GI50: 0.299 µM
  TGI: 1.03 µM
MCF7 breast
  GI50: 0.344 µM
  TGI: 3.57 µM
MDA-MB-231 breast
  GI50: 0.35 µM
  TGI: 1.49 µM
CAKI-1 renal
  GI50: 0.26 µM
  TGI: 6.81 µM
RXF 393 renal
  GI50: 0.103 µM
  TGI: 0.508 µM
COLO 205 colon
  GI50: 0.255 µM
  TGI: 1.48 µM
A549 NSCLC
  GI50: 0.671 µM
  TGI: > 100 µM
BT-549 breast
  GI50: 0.187 µM
  TGI: 0.68 µM
SK-MEL-2 melanoma
  GI50: 0.247 µM
  TGI: 0.792 µM
NCI-H522 lung
  GI50: 0.154 µM
  TGI: 0.99 µM
786-0 renal
  GI50: 0.307 µM
  TGI: 1.21 µM
HCC-2998 colon
  GI50: 0.3 µM
  TGI: 1.39 µM
SNB-19 CNS
  GI50: 0.288 µM
  TGI: 1.74 µM
PC-3 prostate
  GI50: 0.424 µM
  TGI: > 67.2 µM
MDA-MB-435
  GI50: 0.34 µM
  TGI: 1.49 µM
HCT-116 colon
  GI50: 0.119 µM
  TGI: 33.8 µM
HT29 colon
  GI50: 0.455 µM
  TGI: 9.84 µM
UO-31 renal
  GI50: 0.599 µM
  TGI: 8.48 µM
SK-MEL-5 melanoma
  GI50: 0.24 µM
  TGI: 1.02 µM
LOX IMVI melanoma
  GI50: 0.306 µM
  TGI: 1.32 µM
M14 melanoma
  GI50: 0.415 µM
  TGI: 1.78 µM
MALME-3M melanoma
  GI50: 0.513 µM
  TGI: 1.73 µM
HOP-92 NSCLC
  GI50: 0.426 µM
  TGI: 6.11 µM
ACHN renal
  GI50: 0.193 µM
  TGI: 5.96 µM
K-562 leukemia
  GI50: 0.495 µM
  TGI: > 100 µM
RPMI-8226 leukemia
  GI50: 1.65 µM
  TGI: > 44.6 µM
EKVX NSCLC
  GI50: 0.48 µM
  TGI: 3.26 µM
OVCAR-5 ovarian
  GI50: 0.479 µM
  TGI: 3.93 µM
SR leukemia
  GI50: 0.117 µM
